By inhibition is commonly meant how much of the control response was suppressed. A high value points to a strong effect. The term IC50 denotes the concentration that inhibits the measured activity by half.

Like-named read-outs stand apart in the source and are kept apart here.

The text below walks through data of patent publication US6521623B1, “N,N'-disubstituted benzimidazolone derivatives with affinity at the serotonin and dopamine receptors” (Boehringer Ingelheim Pharma KG, priority 2000, dated 2003).

For experiment [1], the target named is T1, 5-HT1A (Homo sapiens, UniProt P08908).
T1 sequence (P08908 1-422): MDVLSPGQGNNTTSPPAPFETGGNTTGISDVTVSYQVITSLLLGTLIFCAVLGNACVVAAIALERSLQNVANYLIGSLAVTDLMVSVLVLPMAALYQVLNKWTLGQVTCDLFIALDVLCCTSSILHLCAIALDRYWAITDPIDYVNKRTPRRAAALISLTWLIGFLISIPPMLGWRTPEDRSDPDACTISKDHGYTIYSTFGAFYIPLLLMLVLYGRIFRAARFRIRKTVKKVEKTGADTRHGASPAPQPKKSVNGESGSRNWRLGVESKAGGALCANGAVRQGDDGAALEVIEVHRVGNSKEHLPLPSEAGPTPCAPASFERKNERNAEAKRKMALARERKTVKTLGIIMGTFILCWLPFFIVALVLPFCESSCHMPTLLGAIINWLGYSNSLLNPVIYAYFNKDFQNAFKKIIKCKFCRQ
Kind of experiment: 5-HT1 Functional Assay (cAMP) in CHO/5-HT1A cells. Format: cell-based. Also noted: expressed in transfected cells; host or cells: CHO/5-HT1A cells. As to the method: 5-HT1 Functional Assay (cAMP)
CHO/5-HT1A cells were random seeded at a density of about 200,000/well in 24 well plates the day prior to the experiment. On the day of the experiment, cells were pretreated for 15 minutes at 37° C. with 500 μM isobutylmethylxantine (IBMX) dissolved in culture medium without serum. Wells were then divided in different groups in duplicate as follows: control, 10 μM FSK, 10 μM FSK+1 μM 5-HT as positive standard and 10 μM FSK+10 μM of the different compound under evaluation. Sample solutions were added and incubated for additional 15 minutes at 37° C. After incubation, the medium was aspirated and the reaction stopped by adding 200 μl of lysis buffer. Plates were shaken for 5 minutes, then the lysate was removed and samples were stored at 4° C. until the day of the assay. For the cAMP evaluation, samples were properly diluted and the cAMP content was measured by an enzyme immunoassay system.

Experiment [2] deals with T1, 5-HT1A. Kind of experiment: 5HT1A Radioligand Receptor Binding Assay ([3H]-8-OH-DPAT, CHO cell membranes). Also noted: expressed in transfected cells; host or cells: CHO cells. The conditions noted are these: for inhibition at 0.1 µM: compound 10^−7 M, singlicate, [3H]-8-OH-DPAT 0.6-0.7 nM. The gist of the method:
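CHO-cell membranes expressing human 5-HT1A incubated with [3H]-8-OH-DPAT (0.6-0.7 nM) for 60 minutes at 27° C, filtered and scintillation counted; non-specific binding defined with 10^−5 M 5-HT. Compounds tested singly at 10^−7 M as % of control specific binding; IC50 from one-site nonlinear regression.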

The target in the next experiment is T2, D4 human receptors (Homo sapiens, UniProt P21917).
T2 construct: expressed in transfected cells; host or cells: CHO cells
T2 sequence (P21917 1-419): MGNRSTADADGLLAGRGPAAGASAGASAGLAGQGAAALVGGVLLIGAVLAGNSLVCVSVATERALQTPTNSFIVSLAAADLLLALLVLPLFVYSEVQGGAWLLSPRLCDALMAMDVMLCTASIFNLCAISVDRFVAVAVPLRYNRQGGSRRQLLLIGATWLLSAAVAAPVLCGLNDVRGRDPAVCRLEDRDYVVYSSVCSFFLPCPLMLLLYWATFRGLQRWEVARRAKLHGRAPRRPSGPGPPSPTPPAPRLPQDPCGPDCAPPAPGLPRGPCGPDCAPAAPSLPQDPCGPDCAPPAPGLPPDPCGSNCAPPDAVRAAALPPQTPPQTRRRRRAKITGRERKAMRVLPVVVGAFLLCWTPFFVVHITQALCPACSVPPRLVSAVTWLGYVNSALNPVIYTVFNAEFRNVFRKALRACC
Kind of experiment: D4 Radioligand Receptor Binding Assay ([3H] YM-09151-2, CHO cell membranes). To be noted: compound 10^−7 M, singlicate, [3H] YM-09151-2 0.15-0.25 nM. The gist of the method:
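Membranes from CHO cells expressing human D4 receptor incubated with [3H] YM-09151-2 (0.15-0.25 nM) and compound at one concentration (10^−7 M, singlicate) for 120 min at 27° C, then filtered.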

Experiment [3] has as its target 5-HT2A (Mus musculus, UniProt P35363). Kind of experiment: 5-HT2 Functional Assay (PI Turnover) in cerebral cortex miniprisms. To be noted: 10 μM compound, inhibition of PI turnover accumulation induced by 100 μM 5-HT. The format is biochemical. How it is done:
5-H T2 Functional Assay (PI Turnover)
Cross-chopped miniprisms (350×350 μm) were prepared from mouse whole cerebral cortices and incubated for 60 minutes at 37° C. in Krebs-Henseleit buffer containing 2 g/l glucose.
Cerebral cortex miniprisms were distributed in vials and incubated for 30 minutes with approximately 170 nM [^3H]-myoinositol (10-20 Ci/mmol) and […] lithium chloride. Samples were divided in different groups in triplicate: control, 100 μM 5-HT, 10 and 30 μM flibanserin+100 μM 5-HT, as standards, and 10 μM of the different compound under investigation+100 μM 5-HT. When 5-HT was added the incubation continued for 45 minutes. Compounds under investigation and flibanserin were added 10 minutes before dispensing 5-HT. Incubation was terminated by the addition of 940 μl chloroform-methanol (1:2 v/v). Further aliquots of chloroform (310 μl) and water (310 μl) were added and labeled inositol phosphates (1 Ps) were extracted from the aqueous phase by ion exchange chromatography using Dowex resin in the formate form. After addition of 10 ml of PicoFluor 40 scintillation cocktail (Packard), the radioactivity present in an aliquot (400 μl) of the aqueous extract was counted by liquid scintillation spectrometry.

Experiment [4] has as its target T3, 5-HT2A (Rattus norvegicus, UniProt P14842).
T3 construct: Cerebral frontal cortex was homogenized in 10 volumes of ice cold 0.32 M sucrose; from tissue; host or cells: rat cerebral frontal cortex membranes
Kind of experiment: 5-HT2A Radioligand Receptor Binding Assay ([3H]-Ketanserin, cerebral frontal cortex membranes). To be noted: 0.5 nM [3H]-Ketanserin. As to the method:
5-HT2A Radioligand Receptor Binding Assay
Rats (male Sprague-Dawley, 200-250 g) were used. Cerebral frontal cortex was homogenized in 10 volumes of ice cold 0.32 M sucrose in 5 mM Tris-HCl ([…]) buffer. After centrifugation of the homogenate (1,000×g for 10 minutes) the supernatant was then recentrifuged at 48,000×g for 15 minutes. The resulting pellet was gently homogenized in an equal volume of 50 mM Tris-HCl buffer (pH 7.4) and incubated at 37° C. for 10 minutes. Membranes were then collected by centrifugation as above described and finally resuspended in 10 volumes of 50 mM Tris-HCl buffer (pH 7.4).
For displacement experiments membranes (980 μl) were diluted in 50 mM Tris-HCl buffer (pH 7.4) to a final concentration of 1:100 (w/v); the tissue suspension was then incubated at 37° C. for 10 minutes in a final volume of 1 ml in the presence of 0.5 nM [^3H]-Ketanserin. Non-specific binding was determined by incubating similar samples with unlabelled methysergide (100 μM). After incubation, samples prepared in a 24 wells cell culture cluster (Costar) were rapidly filtered by Inotech Cell Harvester (IH 201 filters). The filters were washed three times with 2 ml ice-cold Tris-HCl buffer and placed in polyethylene vials, then 4 ml of Filter Count scintillation cocktail (Packard) were added. The radioactivity present was counted by liquid scintillation spectrometry.
The affinity values (IC50) for the compounds were obtained by a nonlinear least squares regression analysis on the basis of a one binding site model.

Where [5] appears, read: [3H]-8-OH-DPAT, CHO membranes, human 5-HT1A, read-out: 5-HT1A Receptor Binding IC50.

T3 sequence (P14842 whole entry): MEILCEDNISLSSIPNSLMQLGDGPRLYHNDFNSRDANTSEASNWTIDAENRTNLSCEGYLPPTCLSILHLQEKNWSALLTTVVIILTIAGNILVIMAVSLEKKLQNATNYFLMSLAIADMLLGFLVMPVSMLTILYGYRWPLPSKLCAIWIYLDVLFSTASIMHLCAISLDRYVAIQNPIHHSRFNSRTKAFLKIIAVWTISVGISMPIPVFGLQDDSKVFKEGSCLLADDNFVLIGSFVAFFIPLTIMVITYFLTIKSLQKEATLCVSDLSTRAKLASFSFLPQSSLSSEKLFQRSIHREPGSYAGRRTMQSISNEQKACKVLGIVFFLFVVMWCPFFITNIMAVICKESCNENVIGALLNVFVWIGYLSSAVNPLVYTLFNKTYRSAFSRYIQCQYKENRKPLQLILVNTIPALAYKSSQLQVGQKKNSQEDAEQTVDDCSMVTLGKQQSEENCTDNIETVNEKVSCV
Sequence of 5-HT2A (Mus musculus, UniProt P35363) (P35363 whole entry, looked up): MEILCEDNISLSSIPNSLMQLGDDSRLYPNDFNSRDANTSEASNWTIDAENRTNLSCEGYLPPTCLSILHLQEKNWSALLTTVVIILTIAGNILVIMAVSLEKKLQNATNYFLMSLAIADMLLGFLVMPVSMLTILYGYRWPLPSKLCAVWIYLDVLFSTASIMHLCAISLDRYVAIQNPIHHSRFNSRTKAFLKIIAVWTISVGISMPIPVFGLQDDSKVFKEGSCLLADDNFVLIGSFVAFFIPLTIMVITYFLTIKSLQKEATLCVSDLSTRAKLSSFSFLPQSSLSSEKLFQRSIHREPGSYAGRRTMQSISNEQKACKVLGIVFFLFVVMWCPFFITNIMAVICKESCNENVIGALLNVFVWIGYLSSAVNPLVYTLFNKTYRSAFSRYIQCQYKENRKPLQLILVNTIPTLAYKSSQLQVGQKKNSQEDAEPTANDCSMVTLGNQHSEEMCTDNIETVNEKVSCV

For `COCCn1c(=O)n(C/C=C\CN2CC=C(c3ccccc3)CC2)c2ccccc21` [Compound 285], the inhibition at 10 µM on 5-HT1A [1] is 47%. The IC50 on 5-HT1A [2] amounted to 5.2 nM. Also, the inhibition at 0.1 µM on 5-HT1A [2] (CHO membranes, human 5-HT1A) was 96%; at D4 human receptors, 32%.
In turn, `CCNC(=O)OCCn1c(=O)n(C/C=C\CN2CC=C(c3ccccc3)CC2)c2ccccc21` [Compound 404] returned an inhibition at 10 µM against 5-HT1A [1] of 60%. For the same compound, the IC50 on 5-HT1A [2] (setting [5]) worked out at 2.1 nM. In addition, the inhibition at 0.1 µM on 5-HT1A [2] (CHO membranes, human 5-HT1A) turned out to be 95%; at D4 human receptors, 34%.
In the case of `O=c1n(CCN2CCOCC2)c2ccccc2n1CCN1CCN(c2cccc(C(F)(F)F)c2)CC1` [Compound 228], on 5-HT1A [1], the inhibition at 10 µM worked out at 82%. Further, the 50% inhibitory concentration (IC50) at 5-HT1A [2] (setting [5]) was 6 nM. Further, the inhibition at 0.1 µM is 95% at 5-HT1A [2] (CHO membranes, human 5-HT1A) and 33% on D4 human receptors.
`CS(=O)(=O)NCCn1c(=O)n(C/C=C/CN2CCN(c3cccc(Cl)c3)CC2)c2ccccc21` [Compound 521] returned an inhibition at 10 µM against 5-HT1A [1] of 67%. Also, on 5-HT2A [3], the “5-HT2A PI Turnover % inhibition” value was 48%. Besides, the concentration for half-maximal inhibition (IC50) worked out at 0.61 nM at 5-HT1A [2] (setting [5]) and 30 nM on 5-HT2A [4].
Taken in the same sequence, the figures for `Cc1cccc(N2CCN(C/C=C\Cn3c(=O)n(CCNS(C)(=O)=O)c4ccccc43)CC2)c1` [Compound 514] were 67%, 41%, 7.9 nM and 74 nM.
In turn, `O=c1n(C/C=C/CN2CCN(c3cccc(Cl)c3)CC2)c2ccccc2n1CCO` [Compound 382] registered an inhibition at 10 µM against 5-HT1A [1] of 64%. On 5-HT1A [2] (setting [5]), the 50% inhibitory concentration (IC50) came to 11 nM. In addition, the inhibition at 0.1 µM at 5-HT1A [2] (CHO membranes, human 5-HT1A) came out at 88%; at D4 human receptors it was 39%.
